Results from patent US10101319B2, “Methods of detecting plasmodium infection” (Commonwealth Scientific and Industrial Research Organisation, priority 2013, dated 2018).

How the values were obtained:
[1] = test system: Plasmodium falciparum; experiment: GC-MS analysis of exhaled breath volatiles and PCR parasitaemia, Cohort 1, induced blood stage malaria, treated with OZ439; assay type: in vivo, human; settings: Cohort 1 compared with Cohort 2 (slower acting bisquinoline 4-aminoquinoline)
Description: This research was a controlled study using a blood stage Plasmodium falciparum (BSPC) inoculum challenge to characterize the efficacy of two anti-malaria drugs against early Plasmodium falciparum blood stage infection. Investigation of breath volatiles was an “add-on” to the anti-malarial efficacy studies. The study was conducted in two cohorts (n=8 for Cohort 1 and n=7 for Cohort 2) using different anti-malaria drugs. The anti-malaria drug investigated in Cohort 1 was OZ439 and the drug used in Cohort 2 was Piperaquine. OZ439, as an artemisin derivative, is rapidly absorbed, acts rapidly and is short-lived in the body. Piperaquine is absorbed slowly and has a long half-life in the body. […]
Each participant in the cohort was inoculated on Day 0 with ˜1,800 viable Plasmodium falciparum-infected human erythrocytes administered intravenously. On an outpatient basis, participants were monitored daily (AM) or morning (AM) and evening (PM), from day 3 until PCR positive for presence of malaria parasites, for adverse events and the unexpected early onset of symptoms, signs or parasitological evidence of malaria.
On the day designated for commencement of treatment, as determined by qPCR results (usually Day7/8 AM), participants were admitted to the study unit and confined for safety monitoring and anti-malaria drug administration with parasite load and drug levels being monitored. […]

[2] = test system: P. falciparum; settings: 13 evaluable volunteers; cited from earlier work

| Compound | Decline in parasitaemia and thioether levels after drug [1] | mean parasite reduction ratio [2] |
| --- | --- | --- |
| c1cc([C@H]2CC[C@]3(CC2)OO[C@]2(O3)C3CC4CC(C3)CC2C4)ccc1OCCN1CCOCC1 [OZ439] | faster decline in parasitaemia and thioether levels |  |
| artemether-lumefantrine |  | 759 |
| atovaquone-proguanil |  | 17 |
